Experiments:
Assay type in all cases: cell-based
RS4 cells = assay: Cell viability assay, MTS, 72 h, RS4;11; settings: Homo sapiens
Experimental: (§1) Cancer cells from different tissue origins including acute lymphoblastic leukemia (MOLT4 and RS4; 11), small cell lung cancer (NCI-H146 or simply H146), and multiple myeloma (EJM and H929) were incubated with increasing concentrations of Examples 1-21 or ABT-263 for 72 h. Cell viability was measured by tetrazolium-based MTS assay. 5×10^4 to 1×10^5 suspension cells or 3×10^3 to 5×10^3 adherent cells were seeded and treated in 96-well plates for 72 h. The EC50 values of individual agents were calculated with GraphPad Prism.

MOLT-4 cells [1] = assay: Cell viability assay, MTS, 72 h, MOLT-4; settings: Homo sapiens; MOLT-4 cells, 72 h, MTS
Experimental: as §1

RS4;11 cells = assay: Cell viability assay, MTS, 48 h, RS4;11; settings: 48 hours, read-out: IC50 (48 hours) RS4;11
Experimental: (§2) Acute lymphoblastic leukemia cells (MOLT-4 and RS4; 11) or small cell lung cancer (NCI-H146 or simply H146) were incubated with increasing concentrations of Bcl-xL degraders for 48 h. Cell viability was measured by tetrazolium-based MTS assay.

MOLT-4 cells [2] = assay: Cell viability assay, MTS, 48 h, MOLT-4; settings: 48 hours, read-out: IC50 (48 hours) MOLT-4
Experimental: as §2

Row | Compound | IC50 (RS4 cells) [nM] | IC50 (MOLT-4 cells [1]) [nM] | IC50 (RS4;11 cells) [nM] | IC50 (MOLT-4 cells [2]) [nM]
1 | Cc1ncsc1-c1ccc([C@H](C)NC(=O)[C@@H]2C[C@@H](O)CN2C(=O)[C@@H](NC(=O)COCCOCCOCCOCCOC(=O)N2CCC(c3ccc(Cl)cc3)=C(CN3CCN(c4ccc(C(=O)NS(=O)(=O)c5ccc(N[C@H](CCN6CCOCC6)CSc6ccccc6)c(S(=O)(=O)C(F)(F)F)c5)cc4)CC3)C2)C(C)(C)C)cc1 [Compound 36, (S)-16-((2S,4R)-4-hydroxy-2-(((S)-1-(4-(4-methylthiazol-5-yl)phenyl)ethyl)carbamoyl)pyrrolidine-1-carbonyl)-17,17-dimethyl-14-oxo-3,6,9,12-tetraoxa-15-azaoctadecyl 4-(4-chlorophenyl)-5-((4-(4-(((4-(((R)-4-morpholino-1-(phenylthio)butan-2-yl)amino)-3-((trifluoromethyl)sulfonyl)phenyl)sulfonyl)carbamoyl)phenyl)piperazin-1-yl)methyl)-3,6-dihydropyridine-1(2H)-carboxylate] | 1750 | 342 |  | 
2 | Cc1ncsc1-c1ccc([C@H](C)NC(=O)[C@@H]2C[C@@H](O)CN2C(=O)[C@@H](NC(=O)CCCCC(=O)NCC2(C)CCC(c3ccc(Cl)cc3)=C(CN3CCN(c4ccc(C(=O)NS(=O)(=O)c5ccc(N[C@H](CCN6CCOCC6)CSc6ccccc6)c(S(=O)(=O)C(F)(F)F)c5)cc4)CC3)C2)C(C)(C)C)cc1 (stereo partly drawn) [Compound 49, N′-((4′-chloro-4-methyl-6-((4-(4-(((4-(((R)-4-morpholino-1-(phenylthio)butan-2-yl)amino)-3-((trifluoromethyl)sulfonyl)phenyl)sulfonyl)carbamoyl)phenyl)piperazin-1-yl)methyl)-2,3,4,5-tetrahydro-[1,1′-biphenyl]-4-yl)methyl)-N^6—((S)-1-((2S,4R)-4-hydroxy-2-(((S)-1-(4-(4-methylthiazol-5-yl)phenyl)ethyl)carbamoyl)pyrrolidin-1-yl)-3,3-dimethyl-1-oxobutan-2-yl)adipamide] | 303 | 340 |  | 
3 | Cc1ncsc1-c1ccc([C@H](C)NC(=O)[C@@H]2C[C@@H](O)CN2C(=O)[C@@H](NC(=O)CCCCCC(=O)NCC2(C)CCC(c3ccc(Cl)cc3)=C(CN3CCN(c4ccc(C(=O)NS(=O)(=O)c5ccc(N[C@H](CCN6CCOCC6)CSc6ccccc6)c(S(=O)(=O)C(F)(F)F)c5)cc4)CC3)C2)C(C)(C)C)cc1 (stereo partly drawn) [Compound 50, N^1-((4′-chloro-4-methyl-6-((4-(4-(((4-(((R)-4-morpholino-1-(phenylthio)butan-2-yl)amino)-3-((trifluoromethyl)sulfonyl)phenyl)sulfonyl)carbamoyl)phenyl)piperazin-1-yl)methyl)-2,3,4,5-tetrahydro-[1,1′-biphenyl]-4-yl)methyl)-N^7—((S)-1-((2S,4R)-4-hydroxy-2-(((S)-1-(4-(4-methylthiazol-5-yl)phenyl)ethyl)carbamoyl)pyrrolidin-1-yl)-3,3-dimethyl-1-oxobutan-2-yl)heptanediamide] | 99 | 187 |  | 
4 | Cc1ncsc1-c1ccc([C@H](C)NC(=O)[C@@H]2C[C@@H](O)CN2C(=O)[C@@H](NC(=O)CCCCCCC(=O)NCC2(C)CCC(c3ccc(Cl)cc3)=C(CN3CCN(c4ccc(C(=O)NS(=O)(=O)c5ccc(N[C@H](CCN6CCOCC6)CSc6ccccc6)c(S(=O)(=O)C(F)(F)F)c5)cc4)CC3)C2)C(C)(C)C)cc1 (stereo partly drawn) [Compound 51, N^1-((4′-chloro-4-methyl-6-((4-(4-(((4-(((R)-4-morpholino-1-(phenylthio)butan-2-yl)amino)-3-((trifluoromethyl)sulfonyl)phenyl)sulfonyl)carbamoyl)phenyl)piperazin-1-yl)methyl)-2,3,4,5-tetrahydro-[1,1′-biphenyl]-4-yl)methyl)-N^8—((S)-1-((2S,4R)-4-hydroxy-2-(((S)-1-(4-(4-methylthiazol-5-yl)phenyl)ethyl)carbamoyl)pyrrolidin-1-yl)-3,3-dimethyl-1-oxobutan-2-yl)octanediamide] | 47 | 142 |  | 
5 | Cc1ncsc1-c1ccc([C@H](C)NC(=O)[C@@H]2C[C@@H](O)CN2C(=O)[C@@H](NC(=O)CCCCCCCC(=O)NCC2(C)CCC(c3ccc(Cl)cc3)=C(CN3CCN(c4ccc(C(=O)NS(=O)(=O)c5ccc(N[C@H](CCN6CCOCC6)CSc6ccccc6)c(S(=O)(=O)C(F)(F)F)c5)cc4)CC3)C2)C(C)(C)C)cc1 (stereo partly drawn) [Compound 52, N^1-((4′-chloro-4-methyl-6-((4-(4-(((4-(((R)-4-morpholino-1-(phenylthio)butan-2-yl)amino)-3-((trifluoromethyl)sulfonyl)phenyl)sulfonyl)carbamoyl)phenyl)piperazin-1-yl)methyl)-2,3,4,5-tetrahydro-[1,1′-biphenyl]-4-yl)methyl)-N^9—((S)-1-((2S,4R)-4-hydroxy-2-(((S)-1-(4-(4-methylthiazol-5-yl)phenyl)ethyl)carbamoyl)pyrrolidin-1-yl)-3,3-dimethyl-1-oxobutan-2-yl)nonanediamide] | 43 | 124 |  | 
6 | Cc1ncsc1-c1ccc([C@H](C)NC(=O)[C@@H]2C[C@@H](O)CN2C(=O)[C@@H](NC(=O)CCCCCCCCCC(=O)NCC2(C)CCC(c3ccc(Cl)cc3)=C(CN3CCN(c4ccc(C(=O)NS(=O)(=O)c5ccc(N[C@H](CCN6CCOCC6)CSc6ccccc6)c(S(=O)(=O)C(F)(F)F)c5)cc4)CC3)C2)C(C)(C)C)cc1 (stereo partly drawn) [Compound 54, N^1-((4′-chloro-4-methyl-6-((4-(4-(((4-(((R)-4-morpholino-1-(phenylthio)butan-2-yl)amino)-3-((trifluoromethyl)sulfonyl)phenyl)sulfonyl)carbamoyl)phenyl)piperazin-1-yl)methyl)-2,3,4,5-tetrahydro-[1,1′-biphenyl]-4-yl)methyl)-N^11—((S)-1-((2S,4R)-4-hydroxy-2-(((S)-1-(4-(4-methylthiazol-5-yl)phenyl)ethyl)carbamoyl)pyrrolidin-1-yl)-3,3-dimethyl-1-oxobutan-2-yl)undecanediamide] | 19.4 | 74 |  | 
7 | Cc1ncsc1-c1ccc([C@H](C)NC(=O)[C@@H]2C[C@@H](O)CN2C(=O)[C@@H](NC(=O)CCCCCCCCCCC(=O)NCC2(C)CCC(c3ccc(Cl)cc3)=C(CN3CCN(c4ccc(C(=O)NS(=O)(=O)c5ccc(N[C@H](CCN6CCOCC6)CSc6ccccc6)c(S(=O)(=O)C(F)(F)F)c5)cc4)CC3)C2)C(C)(C)C)cc1 (stereo partly drawn) [Compound 55, N^1-((4′-chloro-4-methyl-6-((4-(4-(((4-(((R)-4-morpholino-1-(phenylthio)butan-2-yl)amino)-3-((trifluoromethyl)sulfonyl)phenyl)sulfonyl)carbamoyl)phenyl)piperazin-1-yl)methyl)-2,3,4,5-tetrahydro-[1,1′-biphenyl]-4-yl)methyl)-N^2—((S)-1-((2S,4R)-4-hydroxy-2-(((S)-1-(4-(4-methylthiazol-5-yl)phenyl)ethyl)carbamoyl)pyrrolidin-1-yl)-3,3-dimethyl-1-oxobutan-2-yl)dodecanediamide] | 96 | 111 |  | 
8 | Cc1ncsc1-c1ccc([C@H](C)NC(=O)[C@@H]2C[C@@H](O)CN2C(=O)[C@@H](NC(=O)CCCCCCCCCCCC(=O)NCC2(C)CCC(c3ccc(Cl)cc3)=C(CN3CCN(c4ccc(C(=O)NS(=O)(=O)c5ccc(N[C@H](CCN6CCOCC6)CSc6ccccc6)c(S(=O)(=O)C(F)(F)F)c5)cc4)CC3)C2)C(C)(C)C)cc1 (stereo partly drawn) [Compound 56, N^1-((4′-chloro-4-methyl-6-((4-(4-(((4-(((R)-4-morpholino-1-(phenylthio)butan-2-yl)amino)-3-((trifluoromethyl)sulfonyl)phenyl)sulfonyl)carbamoyl)phenyl)piperazin-1-yl)methyl)-2,3,4,5-tetrahydro-[1,1′-biphenyl]-4-yl)methyl)-N^13—((S)-1-((2S,4R)-4-hydroxy-2-(((S)-1-(4-(4-methylthiazol-5-yl)phenyl)ethyl)carbamoyl)pyrrolidin-1-yl)-3,3-dimethyl-1-oxobutan-2-yl)tridecanediamide] | 410 | 333 |  | 
9 | (2S,4R)-1-((S)-2-(12-(4-(4-chlorophenyl)-5-((4-(4-(((4-(((R)-4-morpholino-1-(phenylthio)butan-2-yl)amino)-3-((trifluoromethyl)sulfonyl)phenyl)sulfonyl)carbamoyl)phenyl)piperazin-1-yl)methyl)-3,6-dihydropyridin-1(2H)-yl)-12-oxododecanamido)-3,3-dimethylbutanoyl)-4-hydroxy-N—((S)-1-(4-(4-methylthiazol-5-yl)phenyl)ethyl)pyrrolidine-2-carboxamide [Example 7] |  |  | 50 to 150 | 50 to 150
10 | (S)-13-((2S,4R)-4-hydroxy-2-(((S)-1-(4-(4-methylthiazol-5-yl)phenyl)ethyl)carbamoyl)pyrrolidine-1-carbonyl)-14,14-dimethyl-11-oxo-3,6,9-trioxa-12-azapentadecyl 4-(4-chlorophenyl)-5-((4-(4-(((4-(((R)-4-morpholino-1-(phenylthio)butan-2-yl)amino)-3-((trifluoromethyl)sulfonyl)phenyl)sulfonyl)carbamoyl)phenyl)piperazin-1-yl)methyl)-3,6-dihydropyridine-1(2H)-carboxylate [Example 8] |  |  | 150 to 500 | 150 to 500
